In ChEMBL document CHEMBL4359837, “Discovery of 2-(4-Chloro-3-(trifluoromethyl)phenyl)-N-(4-((6,7-dimethoxyquinolin-4-yl)oxy)phenyl)acetamide (CHMFL-KIT-64) as a Novel Orally Available Potent Inhibitor against Broad-Spectrum Mutants of c-KIT Kinase for Gastrointestinal Stromal Tumors” (J Med Chem, 2019):
Calls of active or inactive are those of the source. The rule behind the calls is not given here.

Key:
[1] = target: RAC-alpha serine/threonine-protein kinase (Homo sapiens) (UniProt P31749); details: GISTT1, 0.1 uM
Chain of RAC-alpha serine/threonine-protein kinase (Homo sapiens) (P31749 whole entry): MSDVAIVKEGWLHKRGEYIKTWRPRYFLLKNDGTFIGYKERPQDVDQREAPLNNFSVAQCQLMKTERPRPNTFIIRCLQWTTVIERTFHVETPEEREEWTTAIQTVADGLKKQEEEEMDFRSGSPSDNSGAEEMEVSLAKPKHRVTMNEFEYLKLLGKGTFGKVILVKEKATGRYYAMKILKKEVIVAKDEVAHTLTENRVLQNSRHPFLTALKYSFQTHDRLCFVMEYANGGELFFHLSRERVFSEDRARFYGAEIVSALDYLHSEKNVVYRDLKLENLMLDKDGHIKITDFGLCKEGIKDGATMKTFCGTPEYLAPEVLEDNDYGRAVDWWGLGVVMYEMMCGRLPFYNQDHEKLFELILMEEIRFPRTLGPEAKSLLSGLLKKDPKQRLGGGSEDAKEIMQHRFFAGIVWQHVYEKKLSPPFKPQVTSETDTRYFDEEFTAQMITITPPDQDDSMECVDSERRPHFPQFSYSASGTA
Description: Inhibition of AKT autophosphorylation at T308 residue in human GISTT1 cells harboring c-KIT 560 to 578 deletion mutant at 0.1 uM measured after 2 hrs by Western blot analysis

[2] = system: Mast/stem cell growth factor receptor Kit (Homo sapiens), P10721 [UNDEFINED MUTATION]; details: GISTT1, 0.1 uM
Chain of Mast/stem cell growth factor receptor Kit (Homo sapiens), P10721 [UNDEFINED MUTATION] (P10721 whole entry, looked up, change not shown): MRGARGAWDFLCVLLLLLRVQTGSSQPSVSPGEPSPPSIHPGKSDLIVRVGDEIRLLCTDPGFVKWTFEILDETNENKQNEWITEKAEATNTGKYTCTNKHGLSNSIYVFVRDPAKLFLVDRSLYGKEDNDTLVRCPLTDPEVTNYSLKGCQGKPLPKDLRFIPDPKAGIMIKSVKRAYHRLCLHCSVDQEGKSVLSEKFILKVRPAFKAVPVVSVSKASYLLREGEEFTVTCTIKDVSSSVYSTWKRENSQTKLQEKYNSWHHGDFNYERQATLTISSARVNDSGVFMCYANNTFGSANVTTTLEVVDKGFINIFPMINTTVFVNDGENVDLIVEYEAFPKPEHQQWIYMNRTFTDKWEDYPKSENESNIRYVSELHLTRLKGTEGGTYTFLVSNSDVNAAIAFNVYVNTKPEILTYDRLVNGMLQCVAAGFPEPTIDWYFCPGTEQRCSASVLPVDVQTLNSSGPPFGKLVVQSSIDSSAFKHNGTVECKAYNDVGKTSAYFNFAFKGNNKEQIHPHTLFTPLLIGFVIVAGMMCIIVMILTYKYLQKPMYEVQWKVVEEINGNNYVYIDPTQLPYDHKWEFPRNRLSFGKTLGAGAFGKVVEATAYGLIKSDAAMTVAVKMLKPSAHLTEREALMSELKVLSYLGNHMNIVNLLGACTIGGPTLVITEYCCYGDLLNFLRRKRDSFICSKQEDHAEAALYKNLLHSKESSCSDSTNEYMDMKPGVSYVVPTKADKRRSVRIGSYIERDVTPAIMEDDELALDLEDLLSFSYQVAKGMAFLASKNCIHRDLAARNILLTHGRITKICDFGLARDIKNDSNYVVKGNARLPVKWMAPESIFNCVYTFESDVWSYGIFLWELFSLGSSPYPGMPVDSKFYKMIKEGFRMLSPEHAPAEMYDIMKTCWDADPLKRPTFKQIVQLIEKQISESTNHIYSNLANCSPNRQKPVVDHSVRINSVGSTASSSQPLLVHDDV
Description: Inhibition of c-KIT 560 to 578 deletion mutant in human GISTT1 cells assessed as reduction in ERK phosphorylation at T202 residue at 0.1 uM measured after 2 hrs by Western blot analysis

[3] = system: Mast/stem cell growth factor receptor Kit (Homo sapiens), P10721 [UNDEFINED MUTATION]; details: GISTT1, 0.1 uM; remark: listed apart in the source
Description: Inhibition of c-KIT 560 to 578 deletion/T670I mutant in human GISTT1 cells assessed as reduction in ERK phosphorylation at T202 residue at 0.1 uM measured after 2 hrs by Western blot analysis

[4] = target: RAC-alpha serine/threonine-protein kinase (Homo sapiens) (UniProt P31749); details: 0.1 uM
Description: Inhibition of AKT autophosphorylation at T308 residue in human GIST5R cells harboring c-KIT 560 to 578 deletion/T670I mutant at 0.1 uM measured after 2 hrs by Western blot analysis

[5] = system: Mast/stem cell growth factor receptor Kit (Homo sapiens), P10721 [UNDEFINED MUTATION]; details: 0.1 uM
Description: Inhibition of c-KIT 560 to 578 deletion/T670I mutant in human GIST5R cells assessed as reduction in c-KIT autophosphorylation at Y703 residue at 0.1 uM measured after 2 hrs by Western blot analysis

[6] = system: Mast/stem cell growth factor receptor Kit (Homo sapiens), P10721 [UNDEFINED MUTATION]; details: 0.1 uM; remark: listed apart in the source
Description: Inhibition of c-KIT 560 to 578 deletion/T670I mutant in human GIST5R assessed as reduction in AKT phosphorylation at T308 residue at 0.1 uM measured after 2 hrs by Western blot analysis

[7] = system: Mast/stem cell growth factor receptor Kit (Homo sapiens), P10721 [UNDEFINED MUTATION]; details: GISTT1, 0.1 uM; remark: listed apart in the source
Description: Inhibition of c-KIT 560 to 578 deletion mutant in human GISTT1 cells assessed as reduction in pS6 phosphorylation at S235 residue at 0.1 uM measured after 2 hrs by Western blot analysis

[8] = system: Mast/stem cell growth factor receptor Kit (Homo sapiens), P10721 [UNDEFINED MUTATION]; details: 0.1 uM; remark: listed apart in the source
Description: Inhibition of c-KIT 560 to 578 deletion/T670I mutant in human GIST5R assessed as reduction in ERK phosphorylation at T204 residue at 0.1 uM measured after 2 hrs by Western blot analysis

[9] = system: Mus musculus; assay type: functional, organism-based; details: BALB/c, 80 mg/kg
[10] = system: Mast/stem cell growth factor receptor Kit (Homo sapiens), P10721 [T670I]; details: Mus musculus
Description: Inhibition of c-KIT T670I mutant in mouse BAF3(transformed) cells assessed as growth inhibition after 72 hrs by CCK8 assay

[11] = AUC (0 to t) in Beagle dog at 5 mg/kg, po by LC-MS/MS analysis; assay type: ADME, organism-based, Canis lupus familiaris; details: in vivo
[12] = system: Mast/stem cell growth factor receptor Kit (Homo sapiens), P10721 [UNDEFINED MUTATION]
Description: Inhibition of c-KIT 560 to 578 deletion/T670I mutant in human GIST5R cells assessed as growth inhibition after 72 hrs by CCK8 assay

[13] = Cmax in Beagle dog at 5 mg/kg, po by LC-MS/MS analysis; assay type: ADME, organism-based, Canis lupus familiaris; design: dose 5 mg/kg, route oral; details: in vivo
[14] = Half life in Beagle dog at 5 mg/kg, po by LC-MS/MS analysis; assay type: ADME, organism-based, Canis lupus familiaris; details: in vivo
[15] = target: Platelet-derived growth factor receptor beta (Homo sapiens, UniProt P09619); assay: Binding affinity to wild-type human partial length PDGFRB (V582 to Y1009 residues) expressed in bacterial expression system assessed as residual binding level at 1 uM by Kinomescan method relative to control
[16] = system: Mast/stem cell growth factor receptor Kit (Homo sapiens), P10721 [L576P]; details: Mus musculus
[17] = target: Macrophage colony-stimulating factor 1 receptor (Homo sapiens, UniProt P07333); assay: Binding affinity to wild-type human partial length CSF1R (I564 to S939 residues) expressed in bacterial expression system assessed as residual binding level at 1 uM by Kinomescan method relative to control
[18] = target: Platelet-derived growth factor receptor beta (Mus musculus) (UniProt P05622); assay: Inhibition of PDGFRB in mouse BAF3(transformed) cells assessed as growth inhibition after 72 hrs by CCK8 assay
[19] = organism: Homo sapiens; assay type: functional, cell-based
[20] = Tmax in mouse at 1 mg/kg, iv by LC-MS/MS analysis; assay type: ADME, organism-based; details: in vivo
[21] = target: T1, Mast/stem cell growth factor receptor Kit (Homo sapiens, UniProt P10721, 560-578DEL/T670I); assay type: cell-based, GISTT1
T1 sequence (P10721 whole entry, looked up, stated change not applied): as the sequence (P10721 whole entry, looked up, change not shown) above

[22] = target: T1, Mast/stem cell growth factor receptor Kit
[23] = target: T2, Mast/stem cell growth factor receptor Kit (Homo sapiens, UniProt P10721, 560-578DEL); assay type: cell-based, GISTT1
T2 sequence (P10721 whole entry, looked up, stated change not applied): as the sequence (P10721 whole entry, looked up, change not shown) above

[24] = system: Mast/stem cell growth factor receptor Kit (Homo sapiens), P10721 [V559A]; details: Mus musculus
Description: Inhibition of c-KIT V559A mutant in mouse BAF3(transformed) cells assessed as growth inhibition after 72 hrs by CCK8 assay

[25] = system: Mus musculus; assay type: functional, organism-based; details: BALB/c, 80 mg/kg; remark: listed apart in the source
[26] = system: Mast/stem cell growth factor receptor Kit (Homo sapiens), P10721 [UNDEFINED MUTATION]; details: GISTT1
Description: Inhibition of c-KIT 560 to 578 deletion mutant in human GISTT1 cells assessed as growth inhibition after 72 hrs by CCK8 assay

[27] = system: GISTT1; assay type: functional, cell-based; details: Homo sapiens
[28] = target: T3, Platelet-derived growth factor receptor alpha (Homo sapiens, UniProt P16234); assay type: cell-based; details: GISTT1
T3 sequence (P16234 whole entry): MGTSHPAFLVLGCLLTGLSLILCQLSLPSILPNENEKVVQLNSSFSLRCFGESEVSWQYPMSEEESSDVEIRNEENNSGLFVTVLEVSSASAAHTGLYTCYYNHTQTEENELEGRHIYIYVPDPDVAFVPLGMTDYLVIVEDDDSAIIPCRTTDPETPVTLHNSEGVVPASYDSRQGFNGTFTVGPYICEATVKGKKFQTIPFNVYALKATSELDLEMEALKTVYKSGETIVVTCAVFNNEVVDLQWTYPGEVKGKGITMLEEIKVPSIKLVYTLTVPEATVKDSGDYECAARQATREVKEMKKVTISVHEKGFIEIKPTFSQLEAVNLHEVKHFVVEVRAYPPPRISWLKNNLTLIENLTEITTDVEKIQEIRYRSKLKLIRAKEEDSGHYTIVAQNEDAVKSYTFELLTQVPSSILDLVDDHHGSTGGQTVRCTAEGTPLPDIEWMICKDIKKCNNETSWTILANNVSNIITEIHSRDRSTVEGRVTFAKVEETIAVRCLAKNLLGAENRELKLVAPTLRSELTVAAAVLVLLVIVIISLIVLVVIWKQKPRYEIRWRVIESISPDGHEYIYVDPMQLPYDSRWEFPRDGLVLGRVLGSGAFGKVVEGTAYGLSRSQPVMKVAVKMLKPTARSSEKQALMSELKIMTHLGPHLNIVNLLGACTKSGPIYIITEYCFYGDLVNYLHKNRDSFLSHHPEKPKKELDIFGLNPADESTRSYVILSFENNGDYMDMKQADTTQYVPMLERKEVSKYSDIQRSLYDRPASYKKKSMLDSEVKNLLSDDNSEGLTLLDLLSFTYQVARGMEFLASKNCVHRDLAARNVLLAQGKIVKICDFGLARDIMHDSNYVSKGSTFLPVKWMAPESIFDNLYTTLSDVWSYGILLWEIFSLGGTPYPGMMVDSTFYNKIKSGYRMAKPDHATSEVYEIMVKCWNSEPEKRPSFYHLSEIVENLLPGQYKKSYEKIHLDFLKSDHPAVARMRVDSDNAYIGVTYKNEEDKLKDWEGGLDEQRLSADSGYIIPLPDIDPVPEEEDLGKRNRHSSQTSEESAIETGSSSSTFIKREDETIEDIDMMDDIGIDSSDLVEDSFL

[29] = target: T1, Mast/stem cell growth factor receptor Kit; assay type: cell-based, GISTT1; remark: listed apart in the source
[30] = target: Mast/stem cell growth factor receptor Kit (Homo sapiens, UniProt P10721, T670I/V559D); assay: Inhibition of human N-terminal GST-tagged KIT V559D/T670I double mutant (544 to end residues) expressed in baculovirus infected Sf9 insect cells by Lanthascreen Eu-binding method
[31] = AUC (0 to t) in mouse at 1 mg/kg, iv by LC-MS/MS analysis; assay type: ADME, organism-based; details: in vivo
[32] = Cmax in Sprague-Dawley rat at 1 mg/kg, iv by LC-MS/MS analysis; assay type: ADME, organism-based; design: dose 1 mg/kg, route intravenous; details: in vivo
[33] = target: T2, Mast/stem cell growth factor receptor Kit; assay type: cell-based, GISTT1; remark: listed apart in the source
[34] = Tmax in mouse at 10 mg/kg, po by LC-MS/MS analysis; assay type: ADME, organism-based; details: in vivo
[35] = Toxicity in BALB/c nu mouse implanted with mouse BAF3(transformed) cells harboring c-KIT T670I mutant assessed as change in body weight at 40 to 100 mg/kg/day, po administered via gavage for 11 days measured daily during compound dosing; assay type: organism-based; details: in vivo, 264 h
[36] = Cmax in Sprague-Dawley rat at 10 mg/kg, po by LC-MS/MS analysis; assay type: ADME, organism-based; design: dose 10 mg/kg, route oral; details: in vivo
[37] = Inhibition of recombinant human GST-tagged FLT4 cytoplasmic domain Q890H/V1128L/H1146R mutant (800 to 1297 residues) expressed in baculovirus expression system by Z-lyte assay
[38] = system: GISTT1; assay type: functional, cell-based; details: Homo sapiens; remark: listed apart in the source
[39] = target: Vascular endothelial growth factor receptor 3 (Mus musculus) (UniProt P35917); assay: Inhibition of FLT4 in mouse BAF3(transformed) cells assessed as growth inhibition after 72 hrs by CCK8 assay
[40] = Antitumor activity against mouse BAF3(transformed) cells harboring c-KIT Y823D mutant implanted in BALB/c nu mouse assessed as tumor weight at 80 mg/kg/day, po administered via gavage for 9 days (reference value: 0.96 g); assay type: functional
[41] = system: GISTT1; assay type: functional, Homo sapiens
[42] = Antitumor activity against mouse BAF3(transformed) cells harboring c-KIT Y823D mutant implanted in BALB/c nu mouse assessed as tumor growth inhibition at 80 mg/kg/day, po administered via gavage for 9 days relative to control; assay type: functional; details: 216 h, read-out: TGI
[43] = system: Mus musculus; assay type: functional, organism-based; details: BALB/c, 80 mg/kg, TDE = time-dependent effect
[44] = system: Mus musculus; assay type: functional, organism-based; details: BALB/c, 80 mg/kg; remark: listed apart in the source
[45] = target: T3, Platelet-derived growth factor receptor alpha; assay: Inhibition of recombinant human GST-tagged PDGFRA cytoplasmic domain (550 to 1089 residues) expressed in baculovirus expression system by Z-lyte assay
[46] = AUC (0 to t) in Sprague-Dawley rat at 1 mg/kg, iv by LC-MS/MS analysis; assay type: ADME, organism-based; details: in vivo
[47] = Cmax in Beagle dog at 1 mg/kg, iv by LC-MS/MS analysis; assay type: ADME, organism-based, Canis lupus familiaris; design: dose 1 mg/kg, route intravenous; details: in vivo
[48] = target: RAC-alpha serine/threonine-protein kinase (Homo sapiens) (UniProt P31749); assay type: cell-based

CCN(CC)CCNC(=O)c1c(C)[nH]c(/C=C2\C(=O)Nc3ccc(F)cc32)c1C [SUNITINIB]
inhibition [1]: Active | inhibition [2]: Active | inhibition [3]: Active | inhibition [4]: Active | inhibition [5]: Active | inhibition [6]: Active | inhibition [7]: Active | inhibition [8]: Active

COc1cc2nccc(Oc3ccc(NC(=O)Cc4ccc(Cl)c(C(F)(F)F)c4)cc3)c2cc1OC
inhibition [9]: inactive | GI50 [10]: 4 nM | AUC(0-t) [11]: 19100 ng·h/mL | GI50 [12]: 73 nM | Cmax [13]: 1160 ng/mL | half-life [14]: 19.4 h | Activity [15]: < 1% | GI50 [16]: 1 nM | Activity [17]: < 1% | GI50 [18]: 4 nM | Activity [19]: Dose-dependent effect | Tmax [20]: 1.8 min | EC50 [21]: < 100 nM | EC50 [22]: < 100 nM | EC50 [23]: < 100 nM | GI50 [24]: 21 nM | inhibition [25]: inactive | GI50 [26]: 6 nM | Activity [27]: Dose-dependent effect | inhibition [28]: Active | EC50 [29]: < 100 nM | IC50 [30]: 8 nM | AUC(0-t) [31]: 2990 ng·h/mL | Cmax [32]: 660 ng/mL | EC50 [33]: < 100 nM | Tmax [34]: 4 h | Activity [35]: Non-Toxic | Cmax [36]: 1640 ng/mL | IC50 [37]: 121 nM | Activity [38]: Dose-dependent effect | GI50 [39]: 522 nM | Activity [40]: 0.09 g | Activity [41]: 0.2 g | inhibition in vivo at 80 mg/kg/day [42]: 90.2% | inhibition [43]: Tde | inhibition [44]: inactive | IC50 [45]: 25 nM | AUC(0-t) [46]: 2550 ng·h/mL | Cmax [47]: 1110 ng/mL | inhibition [48]: Active
